Reference: patent publication US10864279B2, “Linker-drug and antibody-drug conjugate (ADC) employing the same” (priority 2016, dated 2020)

Key:
[1] = Storage test in DMSO (LC-MS); type: physicochemical; details: 20 mM in DMSO, 0, 21, 92 and 99 days at −20° C.
Method: 20 mM Linker-drug 7 was stored in DMSO for 0, 21, 92 and 99 days at −20° C. LC-MS was used to analyze the purity of Linker-drug 7. The condition of LC-MS analysis was as follows.
Column: 4.6 mm×20 mm XBridge C18 column (Waters, Milford USA)
Linear gradient: 5 to 70% solvent B (100% acetonitrile with 0.1% formic acid)
Solvent A (0.1% formic acid in ddH2O)
Solvent B (100% acetonitrile with 0.1% formic acid)

[2] = tested on: Endometrial cancer tumor tissue, HER2-positive (+1); experiment: Tumor growth inhibition test: EC PDX model; type: in vivo, NODSCID mice; details: 10 mg/kg i.v.; Day 12, table head Day 0-60
Method: Endometrial cancer tumor tissue obtained from National Taiwan University was confirmed to be HER2-positive (+1). Tumor (2-3 mm diameter) was subcutaneous implanted to NODSCID mice to test the drug efficacy of ADCs in vivo. When the average tumor size was about 100 mm^3, mice were divided into groups and ADCs were intravenously injected (10 mL/kg B.W. injection volume).

[3] = tested on: HER2-negative cell lines MDA-MB-468; experiment: Potency test, CCK-8 cell viability, MDA-MB-468; type: cell-based; details: HER2 expression negative, 72-120 hours
Method: (§1) Cells were seeded in Corning CellBIND 96-well plates at densities of 6×10^3 cells/well. After incubation overnight at 37° C., 5% CO2 incubator, different concentrations of ADCs were added to the cells in serial dilutions. The cells were then incubated for 72-120 hours at 37° C., 5% CO2 incubator. After 72-120 hours, the old medium was removed and the cells were rinsed once and treated with 10-fold diluted CCK-8 reagent at 37° C. for 4 hours. The 96-well plates were put in the ELISA reader to measure the absorbance wavelength at 450 nm. Cell viability was calculated by the following equation: Cell Viability (%)=(Intensity of sample/Intensity of control)×100%. IC50 values of the ADC samples were calculated using SigmaPlot software.

[4] = tested on: HER2 moderate-expressing breast cancer cell lines JIMT-1 with anti-Herceptin drug resistance; experiment: Potency test, CCK-8 cell viability, JIMT-1; type: cell-based; details: for IC50: HER2 expression 2+ resistant, 72-120 hours; for In vitro selectivity MDA-MB-468/JIMT-1: ratio of IC50
Method: as §1

[5] = tested on: HER2 high-expressing breast cancer cell lines BT-474; experiment: Potency test, CCK-8 cell viability, BT-474; type: cell-based; details: for IC50: HER2 expression 3+, 72-120 hours; for In vitro selectivity MDA-MB-468/BT-474: ratio of IC50
Method: as §1

Compound | storage stability (purity by LC-MS) [1] | TGI (%) ± SEM [2] | IC50 ([3]; Table 3) | IC50 ([3]; Table 4) | IC50 ([4]; Table 3) | IC50 ([4]; Table 4) | In vitro selectivity MDA-MB-468/JIMT-1 ([4]; Table 3) | In vitro selectivity MDA-MB-468/JIMT-1 ([4]; Table 4) | IC50 ([5]; Table 3) | IC50 ([5]; Table 4) | In vitro selectivity MDA-MB-468/BT-474 ([5]; Table 3) | In vitro selectivity MDA-MB-468/BT-474 ([5]; Table 4)
CC[C@H](C)[C@@H]([C@@H](CC(=O)C1CCCN1[C@H](OC)[C@@H](C)C(=O)N[C@H](Cc1ccccc1)C(=O)NCCc1ccc(NC(=O)[C@@H](CCCNC(N)=O)NC(=O)[C@@H](NC(=O)COCCOCCOCCOCCNC(=O)c2ccc(NC(=O)CCl)c(NC(=O)CCl)c2)C(C)C)cc1)OC)N(C)C(=O)[C@H](NC(=O)[C@H](C(C)C)N(C)C)C(C)C (stereo partly drawn) [Linker-drug 7] | stable when dissolved in DMSO | – | – | – | – | – | – | – | – | – | – | –
ado-trastuzumab emtansine [Kadcyla] | – | 26.5±10.1% | 15.2 nM | 8.11 nM | 15.5 nM | 27 nM | 1 | 0.30 | 2.27 nM | 0.31 nM | 5.5 | 26.16
